≈ marks a conversion by molar mass, not a printed value. Like-named read-outs stand apart in the source and are kept apart here. Non-standard residues stand in square brackets, D forms with d. Residues, ends and D or L forms follow the SMILES beside them. Bip = N[C@@H](Cc1ccc(-c2ccccc2)cc1)C(=O)O
How the values were obtained:
[1] = test system: Candida albicans ATCC 10231; assay type: cell-based; conditions: ATCC 10231, 48 h
Description: (§1) Fungal strains used in this study include Candida albicans ATCC 10231, C. glabrata ATCC 2001 and C. tropicalis ATCC 13803. The fungi were grown in Remel Dex broth (Thermo Fisher Scientific, KS). Antifungal assays were conducted essentially as described for antibacterial assays above, except for a higher starting density at an OD600 0.02 and a longer incubation time of ˜48 hours prior to microplate reading (Mishra et al. (2015) RSC Advances 5:59758-59769).

[2] = MTS cytotoxicity assay; assay type: cell-based; conditions: human
Description: (§2) HeLa CCL-2 epithelial adenocarcinoma cells from American Type Culture Collection (ATCC) were maintained in DMEM high glucose media with 4 mM L-glutamine (NyClone) and 100 U/mL penicillin, 100 μg/mL streptomycin (pen/strep) (Life Technologies), and 10% (v/v) inactivated fetal bovine serum (FBS) (NyClone). Cells were grown in 5% CO2 at 37° C. and were detached from the culturing dish at 80% confluency using 0.025% trypsin-EDTA (NyClone) treatment. Peptide influence on the cell viability was estimated by using the MTS assay according to the manufacturer's protocol (MTS, CellTiter96® AQ One Solution Cell Proliferation Assay, Promega) with minor modifications and as described elsewhere (Mishra et al. (2015) RSC Advances 5:59758-59769). In short, cells were cultured in flat bottomed 96 well microtiter plates (Corning Life Science) at a seeding density of 20,000 cells/well. At confluence ˜100% achieved after 20-24 hours of cultivation, the cells were washed twice with 100 μL Dulbecco's Phosphate Buffered Saline (Life Technologies). Further, 90 μL of DMEM media with 10% FBS, pen/step was added before exposure to 10 μL of the peptide solution in the concentration range 12.5-100 μM. Plates were incubated at 37° C. After 1 hour, 10 μL MTS, CellTiter96® was added. Plates were further incubated for another 2 hours at 37° C. and finally, the absorbance was measured on ChroMate® reader (Awareness Technology) at 492 nm. Culture medium and 0.2% SDS were used as negative and positive controls, respectively.
Human skin HaCaT (immortalized keratinocyte from AddexBio, T0020001) and kidney HEK293 cells were also cultivated for cytotoxicity evaluation of the peptides in a similar manner.

[3] = Hemolytic assay; assay type: cell-based; conditions: red blood cells, hemolysis
Description: Hemolytic analysis of selected peptides was performed using an established protocol (Mishra et al. (2015) RSC Advances 5:59758-59769). Briefly, human blood cells (UNMC Blood Bank) were washed three times with phosphate buffer saline (PBS) and diluted to a 2% solution. After peptide treatment, incubation at 37° C. for one hour, and centrifugation at 13,000 rpm, aliquots of the supernatant were transferred to a fresh 96-well microplate. To assess peptide cytotoxicity, the amount of hemoglobin released was measured at 545 nm. The percent lysis was calculated by assuming 100% release when human blood cells were treated with 1% TRITON™ X-100, and 0% release when incubated with PBS buffer. The hemolytic assays using chicken, bovine, and porcine blood cells (Lampire Biological Laboratories, Inc.) were performed in the same manner.

[4] = test system: C. tropicalis ATCC 13803; assay type: cell-based, Candida tropicalis; conditions: ATCC 13803, 48 h
Description: as §1

[5] = MTS cytotoxicity assay; assay type: cell-based; conditions: human, HeLa CCL-2 cells
Description: as §2

[6] = test system: S. aureus USA300; assay type: cell-based, Staphylococcus aureus
Description: (§3) The bacterial strains used here included Gram-positive bacteria Staphylococcus aureus USA300 LAC, Staphylococcus epidermidis 1457, Bacillus subtilis 168, and Gram-negative Escherichia coli K12. Clinical strains of S. aureus, including Mu50, UAMS-1 and Newman, were also evaluated.
(§4) The antimicrobial activity of peptides was evaluated using a standard broth microdilution protocol (Wang, G. (2008) J. Biol. Chem., 283:32637-32643). In brief, exponential phase bacteria at 10^6 CFU were incubated with serially diluted peptides overnight for ˜20 hours at 37° C. The plates were read on a ChroMate® 4300 Microplate Reader at 630 nm (GMI, Ramsey, Minn.). […] In addition, the effects of human serum (up to 10%), pH (6.8, 7.4 and 8.0) and 150 mM sodium chloride (NaCl) on MICs against S. aureus USA300 were also evaluated (Mishra et al. (2015) RSC Advances 5:59758-59769).

[7] = test system: S. aureus Newman; assay type: cell-based, Staphylococcus aureus
Description: as §3, §4

[8] = test system: S. aureus UAMS-1; assay type: cell-based, Staphylococcus aureus
Description: as §3, §4

[9] = test system: S. aureus Mu50; assay type: cell-based, Staphylococcus aureus
Description: as §3, §4

[10] = test system: S. aureus USA300; assay type: cell-based, Staphylococcus aureus; conditions: USA300
Description: The minimal bactericidal concentration (MBC) was determined by plating 50 μl of the content in the clear wells of the above MIC assays. MBC was determined on the petri dishes without bacterial colony formation after overnight growth (Wang et al. (2012) Biochemistry 51:653-664).

[11] = test system: S. epidermidis 1457; assay type: cell-based, Staphylococcus epidermidis
Description: as §3, §4

[12] = test system: C. glabrata ATCC 2001; assay type: cell-based, Candida glabrata; conditions: ATCC 2001, 48 h
Description: as §1

[13] = test system: B. subtilis 168; assay type: cell-based, Bacillus subtilis
Description: as §3, §4

[14] = test system: E. coli K12; assay type: cell-based, Escherichia coli; conditions: K12
Description: as §3, §4

[15] = test system: E. cloacae B2366-12; assay type: cell-based, Enterobacter cloacae
Description: (§5) Bacterial strains used in this study included Enterococcus faecium ATCC51559, Staphylococcus aureus USA300 LAC, Klebsiella pneumoniae ATCC 13883, Acinetobacter baumannii B2367-12, Pseudomonas aeruginosa PAO1, Enterobacter cloacae B2366-12 and Escherichia coli ATCC 25922, wherein the first six constituting the ESKAPE pathogens. Tryptic soy broth (TSB) for bacterial growth was obtained from BD Bioscience (Sparks, Md.).
(§6) The antibacterial activity of peptides was evaluated using a standard broth microdilution protocol as described (Wang et al. (2012) Antimicrob. Agents Chemother., 56:845-856). In brief, 5 μl of each bacterium (stored at −80° C.) were inoculated into TSB medium (2 ml) and grown overnight. A second inoculation was made in the morning by delivering 10 μl of the overnight culture to a fresh TSB medium. After 2-3 hours growth at 37° C., 225 rpm, logarithmic phase bacterial cultures (OD600≈0.5) were diluted and partitioned into a 96-well polystyrene microplate with ˜10^5 colony forming units (CFU) per well (90 μl aliquots). After treatment with 10 μl of peptide solutions at various concentrations, microplates were incubated at 37° C. overnight and read on a ChroMate® 4300 Microplate Reader at 630 nm (GMI, Ramsey, Minn.). The medium was used as a blank where no bacteria should grow.

[16] = test system: P. aeruginosa PAO1; assay type: cell-based, Pseudomonas aeruginosa
Description: as §5, §6

[17] = test system: A. baumannii B2367-12; assay type: cell-based, Acinetobacter baumannii
Description: as §5, §6

[18] = test system: E. coli ATCC 25922; assay type: cell-based, Escherichia coli
Description: as §5, §6

[19] = test system: E. faecium ATCC51559; assay type: cell-based, Enterococcus faecium
Description: as §5, §6

[20] = test system: S. aureus USA300 LAC; assay type: cell-based, Staphylococcus aureus
Description: as §5, §6

## CC[C@H](C)[C@H](NC(=O)[C@H](CCCNC(=N)N)NC(=O)[C@H](CCCCN)NC(=O)[C@H](CC(C)C)NC(=O)[C@H](Cc1c[nH]c2ccccc12)NC(=O)[C@H](Cc1c[nH]c2ccccc12)NC(=O)[C@@H](N)Cc1c[nH]c2ccccc12)C(=O)N[C@@H](Cc1c[nH]c2ccccc12)C(N)=O [TetraF2W-KR, WWWLKRIW] (H-WWWLKRIW-NH2; N-terminus and C-terminus assumed)
[1]
  MIC Candida albicans: 12.5 µM (≈ 15.9 µg/mL)
[2]; HEK293 cells
  CC50 at 1 hour: 55 µM
[2]; HaCaT cells
  CC50 at 1 hour: 60 µM
[3]; chicken, read-out: LC50 Chicken RBCs
  CC50 at 1 hour: 35 µM
[3]; human, read-out: LC50 Human RBCs
  CC50 at 1 hour: 30 µM
[3]; pig, read-out: LC50 Porcine RBCs
  CC50 at 1 hour: 50 µM
[4]
  MIC Candida tropicalis: 3.1 to 6.2 µM
[5]
  CC50 at 1 hour: 100 µM
[6]; S. aureus USA300
  change in MIC on drop of pH from 8 to 6.8: two-fold
[6]; USA300
  Antimicrobial activity (MIC) 150 mM NaCl: 3.1 µM
  Antimicrobial activity (MIC) USA300: 3.1 µM
  MIC S. aureus USA300: 3.1 µM (≈ 3.94 µg/mL)
[6]; USA300, pH 6.8
  Antimicrobial activity (MIC) pH 6.8: 6.2 μM
[6]; USA300, pH 7.4
  Antimicrobial activity (MIC) Normal medium (pH 7.4): 3.1 μM
[6]; USA300, pH 8
  Antimicrobial activity (MIC) pH 8: 3.1 μM
[7]
  Antimicrobial activity (MIC) Newman: 3.1 to 6.2 µM
[8]
  Antimicrobial activity (MIC) UAMS-1: 6.2 µM
[9]
  Antimicrobial activity (MIC) Mu50: 6.2 µM
[10]
  MBC S. aureus USA300: 12.5 µM (≈ 15.9 µg/mL)
[11]
  MIC S. epidermidis 1457: 12.5 µM (≈ 15.9 µg/mL)
[12]
  MIC Candida glabrata: 12.5 µM (≈ 15.9 µg/mL)
[13]
  MIC B. subtilis 168: 6.2 µM (≈ 7.89 µg/mL)
[14]
  MIC E. coli K12: 12.5 to 25 µM

## CC[C@H](C)[C@H](NC(=O)[C@H](CCCNC(=N)N)NC(=O)[C@H](CCC(N)=O)NC(=O)[C@@H](NC(=O)[C@@H](NC(=O)[C@H](CCCNC(=N)N)NC(=O)[C@H](CCCCN)NC(=O)[C@H](Cc1ccccc1)NC(=O)[C@@H](N)CS)[C@@H](C)CC)C(C)C)C(=O)N[C@@H](CCCCN)C(=O)N[C@@H](CC(=O)O)C(=O)N[C@@H](Cc1ccccc1)C(=O)N[C@@H](CC(C)C)C(=O)N[C@@H](CCCNC(=N)N)C(=O)N[C@@H](CC(N)=O)C(=O)N[C@@H](CC(C)C)C(=O)N[C@H](C(N)=O)C(C)C [CysFK-16] (H-CFKRIVQRIKDFLRNLV-NH2; N-terminus and C-terminus assumed)
[15]
  MIC ECl: > 50 µM
[16]
  MIC PA: > 50 µM
[17]
  MIC AB: 25 µM (≈ 53.7 µg/mL)
[18]
  MIC EC: > 50 µM
[19]
  MIC EF: 6.25 µM (≈ 13.4 µg/mL)
[20]
  MIC SA: 18 µM (≈ 38.7 µg/mL)

## CC(C)C[C@H](NC(=O)[C@H](CC(N)=O)NC(=O)[C@H](CCCNC(=N)N)NC(=O)[C@@H](CC(C)C)NC(=O)[C@H](Cc1ccc(-c2ccccc2)cc1)NC(=O)[C@H](CC(=O)O)NC(=O)[C@H](CCCCN)NC(=O)[C@@H](CC(C)C)NC(=O)[C@H](CCCNC(=N)N)NC(=O)[C@H](CCC(N)=O)NC(=O)[C@@H](NC(=O)[C@@H](CC(C)C)NC(=O)[C@H](CCCNC(=N)N)NC(=O)[C@H](CCCCN)NC(=O)[C@H](Cc1ccc(-c2ccccc2)cc1)NC(=O)CN)C(C)C)C(=O)N[C@H](C(N)=O)C(C)C [Merecidin, reference compound] (H-G[Bip]KR[dL]VQR[dL]KD[Bip][dL]RNLV-NH2; N-terminus and C-terminus assumed)
[15]; B2366-12
  MIC ECl: 6.25 ± 0 µM (≈ 14.1 µg/mL)
[16]; PAO1
  MIC PA: 6.25 ± 0 µM (≈ 14.1 µg/mL)
[17]; B2367-12
  MIC AB: 3.1 ± 0 µM (≈ 6.99 µg/mL)
[18]; ATCC 25922
  MIC EC: 3.1 ± 0 µM (≈ 6.99 µg/mL)
[19]; ATCC51559
  MIC EF: ≤3.1 µM
[20]; USA300
  MIC SA: 3.1 ± 0 µM (≈ 6.99 µg/mL)
